In patent US4110327A, “2,3 Diketo-piperazinocarbonylamino alkanoic acids and derivatives” (Toyama Chemical Co., Ltd., priority 1974, dated 1978):
Values after ≈ are worked out from the molar mass of the structure shown. Values belong to the compound of their own block, whether it stands above or below them.

Columns and labels:
Type in all cases: cell-based
Klebsiella pneumoniae [1] = test: MIC against clinical isolates; conditions: unit assumed
Staphylococcus aureus = test: MIC against clinical isolates; conditions: unit assumed
Proteus vulgaris 3027 = test: MIC against standard strain, plate method; conditions: Proteus vulgaris 3027, standard strain; unit assumed
Procedure: (§1) The minimum inhibitory concentrations (MIC) was determined by the plate method disclosed in "Chemotherapy" (Japan), Vol. 16, (1968), pages 98 - 99. The culture medium used was a Heart infusion agar (pH 7.4). The number of the cells per plate used in the inoculum as 10^4 (10^6 cells/ml).

Escherichia coli NIHJ = test: MIC against standard strain, plate method; conditions: unit assumed
Procedure: as §1

[2] = tested on: Pseudomonas aeruginosa I.F.O.; test: MIC against standard strain, plate method; conditions: unit assumed
Procedure: as §1

[3] = tested on: Staphylococcus aureus 209p; test: MIC against standard strain, plate method; conditions: unit assumed
Procedure: as §1

Klebsiella pneumoniae [4] = test: MIC against standard strain, plate method; conditions: unit assumed
Procedure: as §1

Pseudomonas aeruginosa = test: MIC against clinical isolates; conditions: unit assumed

SMILES: CN1CCN(C(=O)N[C@@H](C(=O)N[C@@H]2C(=O)N3C(C(=O)[O-])=C(C[n+]4ccccc4)CS[C@H]23)c2ccccc2)C(=O)C1=O [compound 68]
MIC (Klebsiella pneumoniae [1]; clinical isolate GN 917): 1.56 µg/mL (≈ 2.7 µM)
MIC (Staphylococcus aureus; clinical isolate F-1): 1.56 µg/mL (≈ 2.7 µM)
MIC (Staphylococcus aureus; clinical isolate F-2): 1.56 µg/mL (≈ 2.7 µM)
MIC (Staphylococcus aureus; clinical isolate F-3): 0.78 µg/mL (≈ 1.35 µM)
MIC (Staphylococcus aureus; clinical isolate F-4): 6.25 µg/mL (≈ 10.8 µM)
MIC (Staphylococcus aureus; clinical isolate F-5): 0.78 µg/mL (≈ 1.35 µM)
MIC (Staphylococcus aureus; clinical isolate MS 8588): 1.56 µg/mL (≈ 2.7 µM)
MIC (Staphylococcus aureus; clinical isolate MS 8596): 1.56 µg/mL (≈ 2.7 µM)
MIC (Staphylococcus aureus; clinical isolate MS 8619): 0.78 µg/mL (≈ 1.35 µM)
MIC (Staphylococcus aureus; clinical isolate MS 8684): 1.56 µg/mL (≈ 2.7 µM)
MIC (Staphylococcus aureus; clinical isolate MS 8713): 3.13 µg/mL (≈ 5.41 µM)
MIC (Proteus vulgaris 3027): 1.57 µg/mL (≈ 2.71 µM)
MIC (Escherichia coli NIHJ): < 0.79 µg/mL
MIC [2]: 12.5 µg/mL (≈ 21.6 µM)
MIC [3]: 1.57 µg/mL (≈ 2.71 µM)
MIC (Klebsiella pneumoniae [4]): < 0.79 µg/mL
MIC (Pseudomonas aeruginosa; clinical isolate GN 82): 6.25 µg/mL (≈ 10.8 µM)
MIC (Pseudomonas aeruginosa; clinical isolate GN 163): 12.5 µg/mL (≈ 21.6 µM)
MIC (Pseudomonas aeruginosa; clinical isolate GN 221): 3.13 µg/mL (≈ 5.41 µM)
MIC (Pseudomonas aeruginosa; clinical isolate GN 244): 25 µg/mL (≈ 43.2 µM)
MIC (Pseudomonas aeruginosa; clinical isolate GN 376): 12.5 µg/mL (≈ 21.6 µM)
MIC (Pseudomonas aeruginosa; clinical isolate GN 383): 12.5 µg/mL (≈ 21.6 µM)
MIC (Pseudomonas aeruginosa; clinical isolate GN 1035): 50 µg/mL (≈ 86.4 µM)
MIC (Pseudomonas aeruginosa; clinical isolate GN 1091): 12.5 µg/mL (≈ 21.6 µM)
MIC (Pseudomonas aeruginosa; clinical isolate GN 2565): 50 µg/mL (≈ 86.4 µM)
MIC (Pseudomonas aeruginosa; clinical isolate GN 2987): 12.5 µg/mL (≈ 21.6 µM)
MIC (Pseudomonas aeruginosa; clinical isolate S-1): 25 µg/mL (≈ 43.2 µM)
MIC (Pseudomonas aeruginosa; clinical isolate S-2): 25 µg/mL (≈ 43.2 µM)
MIC (Pseudomonas aeruginosa; clinical isolate S-3): 25 µg/mL (≈ 43.2 µM)
MIC (Pseudomonas aeruginosa; clinical isolate S-4): 25 µg/mL (≈ 43.2 µM)

SMILES: CCN1CCN(C(=O)N[C@@H](C(=O)N[C@@H]2C(=O)N3[C@@H]2SC(C)(C)[C@@H]3C(=O)O)c2ccccc2)CC1=O [compound 19]
MIC (Klebsiella pneumoniae [1]; clinical isolate GN 917): 50 µg/mL (≈ 99.3 µM)
MIC (Klebsiella pneumoniae [1]; clinical isolate GN 3850): 100 µg/mL (≈ 199 µM)
MIC (Klebsiella pneumoniae [1]; clinical isolate GN 4081): > 200 µg/mL
MIC (Klebsiella pneumoniae [1]; clinical isolate GN 4117): > 200 µg/mL
MIC (Proteus vulgaris 3027): 3.13 µg/mL (≈ 6.22 µM)
MIC (Escherichia coli NIHJ): < 1.57 µg/mL
MIC [2]: 12.5 µg/mL (≈ 24.8 µM)
MIC [3]: < 1.57 µg/mL
MIC (Klebsiella pneumoniae [4]): 50 µg/mL (≈ 99.3 µM)
MIC (Pseudomonas aeruginosa; clinical isolate GN 82): 12.5 µg/mL (≈ 24.8 µM)
MIC (Pseudomonas aeruginosa; clinical isolate GN 163): 12.5 µg/mL (≈ 24.8 µM)
MIC (Pseudomonas aeruginosa; clinical isolate GN 221): 12.5 µg/mL (≈ 24.8 µM)
MIC (Pseudomonas aeruginosa; clinical isolate GN 376): 12.5 µg/mL (≈ 24.8 µM)
MIC (Pseudomonas aeruginosa; clinical isolate GN 383): 12.5 µg/mL (≈ 24.8 µM)
MIC (Pseudomonas aeruginosa; clinical isolate GN 1035): 100 µg/mL (≈ 199 µM)
MIC (Pseudomonas aeruginosa; clinical isolate GN 1091): 12.5 µg/mL (≈ 24.8 µM)
MIC (Pseudomonas aeruginosa; clinical isolate GN 2565): 50 µg/mL (≈ 99.3 µM)
MIC (Pseudomonas aeruginosa; clinical isolate GN 2987): 12.5 µg/mL (≈ 24.8 µM)
MIC (Pseudomonas aeruginosa; clinical isolate GN (number not given; Table 5-3)): 25 µg/mL (≈ 49.6 µM)
MIC (Pseudomonas aeruginosa; clinical isolate S-1): 50 µg/mL (≈ 99.3 µM)
MIC (Pseudomonas aeruginosa; clinical isolate S-2): 50 µg/mL (≈ 99.3 µM)
MIC (Pseudomonas aeruginosa; clinical isolate S-3): 50 µg/mL (≈ 99.3 µM)
MIC (Pseudomonas aeruginosa; clinical isolate S-4): 50 µg/mL (≈ 99.3 µM)

MIC (Proteus vulgaris 3027): 0.79 µg/mL (≈ 1.29 µM)
MIC (Escherichia coli NIHJ): < 0.4 µg/mL
MIC [2]: 6.25 µg/mL (≈ 10.2 µM)
MIC [3]: 0.79 µg/mL (≈ 1.29 µM)
MIC (Klebsiella pneumoniae [4]): 25 µg/mL (≈ 40.7 µM)
SMILES: CN1CCN(C(=O)N[C@@H](C(=O)N[C@@H]2C(=O)N3[C@@H]2SC(C)(C)[C@@H]3C(=O)OCCN2CCCCC2)c2ccccc2)C(=O)C1=O (single isomer, unassigned) [compound 53]

MIC (Proteus vulgaris 3027): < 0.4 µg/mL
MIC (Escherichia coli NIHJ): < 0.4 µg/mL
MIC [2]: 12.5 µg/mL (≈ 19.4 µM)
MIC [3]: < 0.4 µg/mL
MIC (Klebsiella pneumoniae [4]): < 0.4 µg/mL
SMILES: CCCCCCCCN1CCN(C(=O)N[C@@H](C(=O)N[C@@H]2C(=O)N3[C@@H]2SC(C)(C)[C@@H]3C(=O)OCOC)c2ccccc2)C(=O)C1=O (single isomer, unassigned) [compound 51]

SMILES: C/C=C/CN1CCN(C(=O)N[C@@H](C(=O)N[C@@H]2C(=O)N3[C@@H]2SC(C)(C)[C@@H]3C(=O)O)c2ccccc2)CC1=O [compound 28]
MIC (Proteus vulgaris 3027): 3.13 µg/mL (≈ 5.91 µM)
MIC (Escherichia coli NIHJ): < 1.57 µg/mL
MIC [2]: 25 µg/mL (≈ 47.2 µM)
MIC [3]: < 1.57 µg/mL
MIC (Klebsiella pneumoniae [4]): 25 µg/mL (≈ 47.2 µM)

SMILES: C=C(C)CN1CCN(C(=O)N[C@@H](C(=O)N[C@@H]2C(=O)N3[C@@H]2SC(C)(C)[C@@H]3C(=O)O)c2ccccc2)CC1=O [compound 27]
MIC (Proteus vulgaris 3027): 3.13 µg/mL (≈ 5.91 µM)
MIC (Escherichia coli NIHJ): < 1.57 µg/mL
MIC [2]: 25 µg/mL (≈ 47.2 µM)
MIC [3]: < 1.57 µg/mL
MIC (Klebsiella pneumoniae [4]): 25 µg/mL (≈ 47.2 µM)

SMILES: CC(C)N1CCN(C(=O)N[C@@H](C(=O)N[C@@H]2C(=O)N3[C@@H]2SC(C)(C)[C@@H]3C(=O)O)c2ccccc2)CC1=O [compound 20]
MIC (Proteus vulgaris 3027): 3.13 µg/mL (≈ 6.05 µM)
MIC (Escherichia coli NIHJ): < 1.57 µg/mL
MIC [2]: 12.5 µg/mL (≈ 24.1 µM)
MIC [3]: 3.13 µg/mL (≈ 6.05 µM)
MIC (Klebsiella pneumoniae [4]): 25 µg/mL (≈ 48.3 µM)

MIC (Proteus vulgaris 3027): < 1.57 µg/mL
MIC (Escherichia coli NIHJ): < 0.79 µg/mL
MIC [2]: 25 µg/mL (≈ 38.8 µM)
MIC [3]: < 0.79 µg/mL
MIC (Klebsiella pneumoniae [4]): 0.79 µg/mL (≈ 1.23 µM)
SMILES: CCN1CC(C)N(C(=O)NC(C(=O)NC2C(=O)N3C(C(=O)O)=C(CSc4nnnn4C)CSC23)c2ccccc2)C(=O)C1=O (stereo not drawn) [compound 66]

MIC (Proteus vulgaris 3027): 3.13 µg/mL (≈ 6.19 µM)
MIC (Escherichia coli NIHJ): < 0.79 µg/mL
MIC [2]: 12.5 µg/mL (≈ 24.7 µM)
MIC [3]: < 0.79 µg/mL
MIC (Klebsiella pneumoniae [4]): 12.5 µg/mL (≈ 24.7 µM)
SMILES: CN1CCN(C(=O)NC(C(=O)NC2C(=O)N3C2SC(C)(C)C3C(=O)O)C2=CCC=CC2)C(=O)C1=O (stereo not drawn) [compound 57]

MIC (Proteus vulgaris 3027): < 1.57 µg/mL
MIC (Escherichia coli NIHJ): < 1.57 µg/mL
MIC [2]: 25 µg/mL (≈ 43.4 µM)
MIC [3]: < 1.57 µg/mL
MIC (Klebsiella pneumoniae [4]): 6.25 µg/mL (≈ 10.9 µM)
SMILES: CC(=O)OCCN1CCN(C(=O)N[C@@H](C(=O)N[C@@H]2C(=O)N3[C@@H]2SC(C)(C)[C@@H]3C(=O)O)c2ccccc2)C(=O)C1=O (single isomer, unassigned) [compound 41]

MIC (Proteus vulgaris 3027): 3.13 µg/mL (≈ 6.14 µM)
MIC (Escherichia coli NIHJ): < 1.57 µg/mL
MIC [2]: 12.5 µg/mL (≈ 24.5 µM)
MIC [3]: < 1.57 µg/mL
MIC (Klebsiella pneumoniae [4]): 25 µg/mL (≈ 49.1 µM)
SMILES: CN1CCN(C(=O)NC(C(=O)N[C@@H]2C(=O)N3[C@@H]2SC(C)(C)[C@@H]3C(=O)O)c2cccs2)C(=O)C1=O (stereo partly drawn) [compound 58]

SMILES: CC1(C)S[C@@H]2[C@H](NC(=O)[C@H](NC(=O)N3CCN(C(=O)C4CCCCC4)CC3=O)c3ccccc3)C(=O)N2[C@H]1C(=O)O [compound 3]
MIC (Proteus vulgaris 3027): 3.13 µg/mL (≈ 5.34 µM)
MIC (Escherichia coli NIHJ): < 1.57 µg/mL
MIC [2]: 100 µg/mL (≈ 171 µM)
MIC [3]: < 1.57 µg/mL
MIC (Klebsiella pneumoniae [4]): 3.13 µg/mL (≈ 5.34 µM)

SMILES: C=CC(C)N1CCN(C(=O)N[C@@H](C(=O)N[C@@H]2C(=O)N3[C@@H]2SC(C)(C)[C@@H]3C(=O)O)c2ccccc2)CC1=O (single isomer, unassigned) [compound 26]
MIC (Proteus vulgaris 3027): 12.5 µg/mL (≈ 23.6 µM)
MIC (Escherichia coli NIHJ): < 1.57 µg/mL
MIC [2]: 25 µg/mL (≈ 47.2 µM)
MIC [3]: < 1.57 µg/mL
MIC (Klebsiella pneumoniae [4]): 25 µg/mL (≈ 47.2 µM)
